# According to ChEMBL document CHEMBL1201862, “PubChem BioAssay data set” (2004):
# The source made the active and inactive calls.
# Assays:
# Coagulation factor XII = molecular target: T1, Coagulation factor XII (Homo sapiens, UniProt P00748); assay type: functional;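 note: activated factor XIIa alpha cleaving a fluorogenic AMC peptide substrate; inhibitor potency from loss of enzyme activity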
# T1 sequence (P00748 whole entry): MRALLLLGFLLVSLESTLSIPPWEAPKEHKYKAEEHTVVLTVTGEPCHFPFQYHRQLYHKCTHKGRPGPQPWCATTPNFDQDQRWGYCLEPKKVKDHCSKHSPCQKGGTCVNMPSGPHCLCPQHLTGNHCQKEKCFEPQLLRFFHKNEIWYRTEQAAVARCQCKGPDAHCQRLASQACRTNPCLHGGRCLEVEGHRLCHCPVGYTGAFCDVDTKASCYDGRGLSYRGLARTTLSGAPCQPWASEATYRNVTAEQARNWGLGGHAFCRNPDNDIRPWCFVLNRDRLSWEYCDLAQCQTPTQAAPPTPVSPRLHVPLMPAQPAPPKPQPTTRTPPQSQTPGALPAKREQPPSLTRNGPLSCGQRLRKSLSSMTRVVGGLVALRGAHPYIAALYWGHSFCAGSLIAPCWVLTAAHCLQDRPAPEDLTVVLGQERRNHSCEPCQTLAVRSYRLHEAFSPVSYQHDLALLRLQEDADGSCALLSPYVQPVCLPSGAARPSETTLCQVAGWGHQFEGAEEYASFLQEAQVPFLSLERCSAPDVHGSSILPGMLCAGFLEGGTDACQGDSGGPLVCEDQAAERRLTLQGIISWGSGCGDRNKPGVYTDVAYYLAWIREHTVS
# ORF 73 = molecular target: T2, ORF 73 (Human herpesvirus 8, UniProt O40947); assay: inhibitors of C-LANA binding to LBS DNA, dose response, biochemical, fluorescence polarization, cherry-picked samples (AID 504725); set-up: species or system Human gammaherpesvirus 8;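 note: fluorescence polarization of a labeled DNA duplex reporting LANA DNA binding; potency is for inhibitors that block LANA binding to the DNA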
# T2 sequence (O40947 whole entry): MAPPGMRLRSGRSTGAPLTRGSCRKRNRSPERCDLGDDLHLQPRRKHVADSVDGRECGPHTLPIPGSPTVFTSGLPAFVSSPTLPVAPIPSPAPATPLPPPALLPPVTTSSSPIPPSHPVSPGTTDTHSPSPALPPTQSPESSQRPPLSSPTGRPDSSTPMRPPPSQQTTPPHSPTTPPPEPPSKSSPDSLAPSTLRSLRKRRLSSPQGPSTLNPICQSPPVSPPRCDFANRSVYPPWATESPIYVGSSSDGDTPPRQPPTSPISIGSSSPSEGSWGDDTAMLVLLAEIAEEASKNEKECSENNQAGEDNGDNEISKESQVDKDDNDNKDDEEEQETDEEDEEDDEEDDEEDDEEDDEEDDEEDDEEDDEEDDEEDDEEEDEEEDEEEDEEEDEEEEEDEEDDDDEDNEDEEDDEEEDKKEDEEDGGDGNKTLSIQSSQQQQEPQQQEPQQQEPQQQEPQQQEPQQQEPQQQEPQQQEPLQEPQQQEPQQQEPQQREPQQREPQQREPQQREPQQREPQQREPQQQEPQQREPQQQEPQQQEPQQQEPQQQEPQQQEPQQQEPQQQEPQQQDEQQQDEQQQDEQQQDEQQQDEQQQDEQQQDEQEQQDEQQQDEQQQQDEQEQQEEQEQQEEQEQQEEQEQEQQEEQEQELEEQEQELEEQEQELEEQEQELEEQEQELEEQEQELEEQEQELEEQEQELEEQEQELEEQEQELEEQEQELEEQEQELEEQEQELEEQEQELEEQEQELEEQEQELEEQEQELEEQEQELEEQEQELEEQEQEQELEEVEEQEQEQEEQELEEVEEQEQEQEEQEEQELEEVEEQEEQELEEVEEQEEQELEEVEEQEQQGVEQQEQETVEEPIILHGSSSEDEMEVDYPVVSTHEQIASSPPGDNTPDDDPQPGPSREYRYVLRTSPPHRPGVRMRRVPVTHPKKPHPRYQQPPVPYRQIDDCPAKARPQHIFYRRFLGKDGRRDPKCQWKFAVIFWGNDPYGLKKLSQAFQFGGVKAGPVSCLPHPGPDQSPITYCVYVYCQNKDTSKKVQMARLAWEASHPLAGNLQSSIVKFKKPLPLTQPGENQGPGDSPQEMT
# [1] = cytotoxicity toward NIH3T3 fibroblasts, dose response, counter-screen, cell-based, ATP luminescence, mouse fibroblasts (AID 2010); assay type: functional;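 note: cells exposed to compound for about 90 hours before reading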
# [2] = molecular target: Neurotensin receptor type 1 (Homo sapiens, UniProt P30989); assay type: functional;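 note: Image-based confirmatory dose-response assay measuring agonist activity at NTR1; NTR1-expressing U2OS osteosarcoma cells imaged for beta-arrestin GFP spot formation; agonist potency where compounds increase beta-arrestin recruitment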
# Neurotensin receptor type 1, sequence (P30989 whole entry): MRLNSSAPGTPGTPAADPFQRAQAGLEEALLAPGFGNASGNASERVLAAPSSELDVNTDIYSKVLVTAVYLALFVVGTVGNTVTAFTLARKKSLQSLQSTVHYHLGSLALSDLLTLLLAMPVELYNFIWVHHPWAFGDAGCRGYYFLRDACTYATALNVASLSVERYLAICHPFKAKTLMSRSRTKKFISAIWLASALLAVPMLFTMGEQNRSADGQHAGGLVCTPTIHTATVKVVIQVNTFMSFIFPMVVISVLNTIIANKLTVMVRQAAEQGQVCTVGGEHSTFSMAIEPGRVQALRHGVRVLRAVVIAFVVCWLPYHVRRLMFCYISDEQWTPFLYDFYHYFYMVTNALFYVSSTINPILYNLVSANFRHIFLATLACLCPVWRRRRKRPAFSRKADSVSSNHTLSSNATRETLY
# Cytochrome P450 2C19 = Cytochrome P450 2C19 (Homo sapiens, UniProt P33261); assay: Cytochrome panel assay with activity outcomes. Panel member name: p450-cyp2c19 Compounds with AC50 equal or less than 10 uM are considered active; assay type: functional; details: read-out: AC50
# Cytochrome P450 2C19, sequence (P33261 whole entry): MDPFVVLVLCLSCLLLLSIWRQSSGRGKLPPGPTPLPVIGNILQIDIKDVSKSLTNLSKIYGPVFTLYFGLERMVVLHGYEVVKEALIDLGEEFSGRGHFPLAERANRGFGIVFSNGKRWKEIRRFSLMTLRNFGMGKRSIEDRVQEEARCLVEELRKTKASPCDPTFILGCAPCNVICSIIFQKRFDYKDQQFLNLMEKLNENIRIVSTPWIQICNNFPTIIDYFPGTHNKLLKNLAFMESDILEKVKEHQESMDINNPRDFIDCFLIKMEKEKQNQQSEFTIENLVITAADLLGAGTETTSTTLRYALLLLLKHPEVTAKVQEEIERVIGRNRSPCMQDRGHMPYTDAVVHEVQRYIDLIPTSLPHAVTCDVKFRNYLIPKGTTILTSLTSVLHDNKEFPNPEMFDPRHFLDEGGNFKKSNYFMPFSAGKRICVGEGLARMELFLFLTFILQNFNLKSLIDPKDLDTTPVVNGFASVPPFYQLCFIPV
# Cytochrome P450 2C9 = Cytochrome P450 2C9 (Homo sapiens, UniProt P11712)
# Streptokinase A = molecular target: T3, Streptokinase A (Streptococcus pyogenes serotype M1, UniProt P10520); assay: S. pyogenes streptokinase expression inhibitors, potency, dose response, plasminogen activation absorbance, OD405 (AID 1914); assay type: functional, Streptococcus pyogenes M1 GAS;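 note: secreted streptokinase activity via plasminogen activation per viability signal from cell pellet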
# T3 sequence (P10520 whole entry): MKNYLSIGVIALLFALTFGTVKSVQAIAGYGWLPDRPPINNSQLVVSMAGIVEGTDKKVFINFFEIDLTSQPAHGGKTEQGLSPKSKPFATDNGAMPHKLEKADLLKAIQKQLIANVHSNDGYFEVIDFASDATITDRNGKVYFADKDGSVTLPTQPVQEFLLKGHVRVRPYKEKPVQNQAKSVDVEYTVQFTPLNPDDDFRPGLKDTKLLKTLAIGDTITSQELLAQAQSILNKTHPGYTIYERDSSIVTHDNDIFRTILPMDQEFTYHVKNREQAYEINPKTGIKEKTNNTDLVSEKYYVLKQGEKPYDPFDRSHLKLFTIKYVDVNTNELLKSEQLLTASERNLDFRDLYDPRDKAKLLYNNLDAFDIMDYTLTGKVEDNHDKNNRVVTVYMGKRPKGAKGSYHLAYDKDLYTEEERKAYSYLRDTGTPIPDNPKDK
# [3] = inhibitors of intracellular T. cruzi replication, confirmation, NIH3T3 host cells, beta-gal luminescence (AID 2044); assay type: functional, cell-based;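 note: intracellular parasites grown in NIH/3T3 mouse fibroblasts as host cells; luminescent beta-galactosidase reporter signal from transgenic T. cruzi replicating inside host cells; inhibitors lower the luminescence signal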
# Streptococcus = assay: Group A Streptococcus viability loss, dose response, counter-screen for streptokinase expression inhibitor project, luminescence, BacTiterGlo (AID 1915); assay type: functional, organism-based;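 note: potency for reduction of bacterial viability or growth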
# [4] = system: Streptococcus sp. 'group A'; assay: growth inhibition of control SK(-) GAS strain, dose response, counter-screen for streptokinase expression inhibitor project, luminescence, kanamycin, BacTiterGlo, confirmation (AID 1900); assay type: functional, organism-based
# [5] = molecular target: T4, Voltage-gated N-type calcium channel alpha-1B subunit/Amyloid beta A4 precursor protein-binding family A member 1 (Homo sapiens, UniProt Q00975+Q02410); assay type: protein assay
# T4 sequence (Q00975 whole entry): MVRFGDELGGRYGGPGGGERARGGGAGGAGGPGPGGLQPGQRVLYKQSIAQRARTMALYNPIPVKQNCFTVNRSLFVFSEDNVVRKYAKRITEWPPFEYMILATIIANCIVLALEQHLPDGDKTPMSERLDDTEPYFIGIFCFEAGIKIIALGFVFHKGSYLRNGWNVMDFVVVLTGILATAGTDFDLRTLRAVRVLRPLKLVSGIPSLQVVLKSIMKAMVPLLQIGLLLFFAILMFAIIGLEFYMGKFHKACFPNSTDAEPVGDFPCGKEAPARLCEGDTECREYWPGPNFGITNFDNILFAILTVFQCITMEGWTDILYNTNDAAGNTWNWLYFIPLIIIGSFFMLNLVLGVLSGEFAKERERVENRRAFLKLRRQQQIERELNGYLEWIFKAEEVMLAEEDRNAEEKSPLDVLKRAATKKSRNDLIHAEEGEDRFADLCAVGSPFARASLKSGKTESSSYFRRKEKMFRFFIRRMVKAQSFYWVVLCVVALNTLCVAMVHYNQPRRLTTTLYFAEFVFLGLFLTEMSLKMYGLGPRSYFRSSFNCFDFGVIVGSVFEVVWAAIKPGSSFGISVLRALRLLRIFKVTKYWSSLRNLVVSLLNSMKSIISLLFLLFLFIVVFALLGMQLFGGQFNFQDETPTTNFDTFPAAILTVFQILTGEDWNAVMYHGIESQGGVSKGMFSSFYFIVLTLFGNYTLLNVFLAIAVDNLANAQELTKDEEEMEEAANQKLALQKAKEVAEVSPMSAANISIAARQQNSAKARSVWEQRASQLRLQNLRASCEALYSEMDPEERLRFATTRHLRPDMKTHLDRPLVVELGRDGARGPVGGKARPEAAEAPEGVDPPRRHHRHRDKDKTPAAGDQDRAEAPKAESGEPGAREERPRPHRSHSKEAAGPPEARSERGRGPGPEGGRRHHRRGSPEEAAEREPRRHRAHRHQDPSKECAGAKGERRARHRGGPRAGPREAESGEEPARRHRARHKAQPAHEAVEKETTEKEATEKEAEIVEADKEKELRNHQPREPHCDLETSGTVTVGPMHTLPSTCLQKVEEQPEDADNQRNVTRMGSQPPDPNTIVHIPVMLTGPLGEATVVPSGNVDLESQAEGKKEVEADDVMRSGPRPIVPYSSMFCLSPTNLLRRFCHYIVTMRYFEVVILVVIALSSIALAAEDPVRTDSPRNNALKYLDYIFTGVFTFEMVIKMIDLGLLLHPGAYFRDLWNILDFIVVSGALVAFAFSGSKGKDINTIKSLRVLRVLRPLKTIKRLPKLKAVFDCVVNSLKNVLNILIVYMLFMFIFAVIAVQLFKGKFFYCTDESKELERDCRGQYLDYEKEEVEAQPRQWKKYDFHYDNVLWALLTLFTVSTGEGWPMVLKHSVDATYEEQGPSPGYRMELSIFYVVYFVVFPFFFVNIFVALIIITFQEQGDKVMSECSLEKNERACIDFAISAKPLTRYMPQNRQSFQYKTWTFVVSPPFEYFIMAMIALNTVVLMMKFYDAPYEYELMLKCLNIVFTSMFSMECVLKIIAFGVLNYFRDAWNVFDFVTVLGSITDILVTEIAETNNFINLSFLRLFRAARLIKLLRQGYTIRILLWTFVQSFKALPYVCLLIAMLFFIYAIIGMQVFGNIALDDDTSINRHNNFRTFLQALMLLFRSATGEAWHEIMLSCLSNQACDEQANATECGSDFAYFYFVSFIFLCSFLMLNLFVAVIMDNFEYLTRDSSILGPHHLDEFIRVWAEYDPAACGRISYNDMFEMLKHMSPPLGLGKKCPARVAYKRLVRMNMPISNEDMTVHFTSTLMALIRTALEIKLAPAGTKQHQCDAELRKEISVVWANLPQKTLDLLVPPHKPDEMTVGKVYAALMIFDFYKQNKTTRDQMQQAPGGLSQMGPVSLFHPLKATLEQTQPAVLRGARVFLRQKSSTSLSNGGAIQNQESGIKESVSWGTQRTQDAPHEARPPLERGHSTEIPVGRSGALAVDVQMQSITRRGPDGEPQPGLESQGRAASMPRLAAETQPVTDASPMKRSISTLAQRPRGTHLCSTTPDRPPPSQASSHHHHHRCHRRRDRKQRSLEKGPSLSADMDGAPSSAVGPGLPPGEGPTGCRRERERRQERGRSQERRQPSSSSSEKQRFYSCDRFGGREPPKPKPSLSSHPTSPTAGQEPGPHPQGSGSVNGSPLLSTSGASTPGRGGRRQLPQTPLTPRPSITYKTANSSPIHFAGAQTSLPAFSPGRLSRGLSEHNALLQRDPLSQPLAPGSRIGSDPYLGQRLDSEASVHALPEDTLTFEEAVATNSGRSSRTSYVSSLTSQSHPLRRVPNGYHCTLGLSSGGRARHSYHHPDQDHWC
# T4 sequence (Q02410 whole entry): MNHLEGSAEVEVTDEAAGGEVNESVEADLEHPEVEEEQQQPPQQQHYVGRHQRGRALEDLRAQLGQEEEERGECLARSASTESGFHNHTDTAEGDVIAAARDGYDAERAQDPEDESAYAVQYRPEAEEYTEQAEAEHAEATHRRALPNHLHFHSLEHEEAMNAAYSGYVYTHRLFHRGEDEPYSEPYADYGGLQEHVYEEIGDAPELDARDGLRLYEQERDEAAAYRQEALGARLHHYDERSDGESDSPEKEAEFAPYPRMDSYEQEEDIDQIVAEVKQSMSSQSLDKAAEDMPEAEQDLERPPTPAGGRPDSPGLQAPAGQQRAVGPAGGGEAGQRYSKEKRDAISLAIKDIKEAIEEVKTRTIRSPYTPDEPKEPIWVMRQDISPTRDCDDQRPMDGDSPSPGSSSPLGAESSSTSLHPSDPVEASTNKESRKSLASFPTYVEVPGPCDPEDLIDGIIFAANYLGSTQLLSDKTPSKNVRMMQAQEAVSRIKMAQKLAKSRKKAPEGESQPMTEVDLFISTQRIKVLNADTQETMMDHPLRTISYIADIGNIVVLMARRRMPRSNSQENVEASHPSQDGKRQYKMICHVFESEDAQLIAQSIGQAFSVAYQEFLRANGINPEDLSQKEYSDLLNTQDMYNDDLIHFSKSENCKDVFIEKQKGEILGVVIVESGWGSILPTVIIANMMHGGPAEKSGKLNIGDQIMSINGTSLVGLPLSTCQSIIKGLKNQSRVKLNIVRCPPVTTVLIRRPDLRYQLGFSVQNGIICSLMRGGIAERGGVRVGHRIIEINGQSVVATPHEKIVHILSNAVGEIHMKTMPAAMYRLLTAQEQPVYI
# [6] = molecular target: T4, Voltage-gated N-type calcium channel alpha-1B subunit/Amyloid beta A4 precursor protein-binding family A member 1; assay type: protein assay; remark: listed apart in the source
# [7] = molecular target: Induced myeloid leukemia cell differentiation protein Mcl-1 (Homo sapiens, UniProt Q07820); assay type: functional
# Induced myeloid leukemia cell differentiation protein Mcl-1, sequence (Q07820 whole entry, the tested form may be a part): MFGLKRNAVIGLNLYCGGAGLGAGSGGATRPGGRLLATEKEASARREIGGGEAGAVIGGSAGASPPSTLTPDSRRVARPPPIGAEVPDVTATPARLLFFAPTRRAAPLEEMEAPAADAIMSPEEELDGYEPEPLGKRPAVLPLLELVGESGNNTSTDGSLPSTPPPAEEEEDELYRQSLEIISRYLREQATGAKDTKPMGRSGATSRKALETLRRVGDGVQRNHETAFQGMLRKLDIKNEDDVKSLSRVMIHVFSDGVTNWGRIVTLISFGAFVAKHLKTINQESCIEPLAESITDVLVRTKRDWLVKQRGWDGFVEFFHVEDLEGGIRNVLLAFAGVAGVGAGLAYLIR
# [8] = molecular target: T5, Carboxy-terminal domain RNA polymerase II polypeptide A small phosphatase 1 (Homo sapiens, UniProt Q9GZU7); assay: inhibitors of CTDSP1, concentration-response testing, biochemical assay, absorbance-based, actives from ultra-high-throughput screening (AID 540297); assay type: functional
# T5 sequence (Q9GZU7 whole entry): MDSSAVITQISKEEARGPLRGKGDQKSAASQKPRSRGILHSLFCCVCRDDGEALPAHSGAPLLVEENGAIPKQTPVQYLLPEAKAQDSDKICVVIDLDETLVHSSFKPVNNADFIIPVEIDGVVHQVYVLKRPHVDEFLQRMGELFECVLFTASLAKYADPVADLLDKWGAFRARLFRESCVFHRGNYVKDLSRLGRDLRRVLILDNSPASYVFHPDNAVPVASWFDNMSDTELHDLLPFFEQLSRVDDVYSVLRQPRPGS
# SUMO-activating enzyme = SUMO-activating enzyme (Homo sapiens, UniProt Q9UBT2); assay: SUMOylation inhibitor hit validation, confirmation, SUMOylation inhibitor project, biochemical, AlphaScreen (AID 2018); assay type: functional
# Melanocortin receptor 4 = Melanocortin receptor 4 (Homo sapiens, UniProt P32245); assay type: functional, cell-based;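 note: Cell-based assay with luminescence read-out, confirmatory dose-response testing for agonist activity of biased ligands at MC4R; human U2OS cells with tagged receptor and beta-arrestin; potency of agonists that increase receptor coupling to beta-arrestin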
# Melanocortin receptor 4, sequence (P32245 whole entry): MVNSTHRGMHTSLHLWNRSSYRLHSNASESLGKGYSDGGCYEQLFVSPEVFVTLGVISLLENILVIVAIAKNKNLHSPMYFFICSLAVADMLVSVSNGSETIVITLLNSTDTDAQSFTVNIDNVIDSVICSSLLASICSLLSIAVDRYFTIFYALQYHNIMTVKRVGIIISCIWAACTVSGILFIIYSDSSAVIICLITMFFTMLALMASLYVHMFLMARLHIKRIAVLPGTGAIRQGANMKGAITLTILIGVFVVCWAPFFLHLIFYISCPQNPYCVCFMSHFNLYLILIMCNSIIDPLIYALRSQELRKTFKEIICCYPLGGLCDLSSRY
# H9c2 = assay: cells; assay type: functional, cell-based; details: Rattus norvegicus, H9c2, Myocardium;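 note: confirmatory concentration-response retest of ultra-high-throughput screening hits for modulation of myocardial damage; cell death induced by hydrogen peroxide oxidative stress; compound pretreatment for 60 min then peroxide exposure for 2 h; potency is for protecting the cells against peroxide damage rather than for killing them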
# [9] = Luminescence Cell-Based Dose Retest to Confirm Inhibitors of Cancer Stem Cells. [Related pubchem assays (depositor defined):AID2717, AID2721]; assay type: functional; details: Homo sapiens
# [10] = microbe, parasite or virus in culture; assay type: functional; details: Mycobacterium tuberculosis
# INS1 = assay: beta cell apoptosis inhibitors, cytokine rescue, dose response, luminescence, retest (AID 449756); assay type: functional, cell-based; details: Rattus norvegicus;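 note: cell death triggered by IL-1 beta plus TNF-alpha plus IFN-gamma mixture; protective hits raise ATP signal compared with cytokine alone wells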
# [11] = growth suppression of PTEN-null colon cells, dose response, cell-based, HCT116 PTEN knockout (AID 1047); assay type: functional;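 note: HCT116 colon tumor cells with PTEN knocked out; cells exposed to compound for 60 hours before readout; potency for loss of cell viability measured by luminescence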
# [12] = growth suppression of beta-catenin-knockout colon cells, dose response, cell-based, HCT116, human colon tumor (AID 1045); assay type: functional;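 note: HCT116 colon tumor cells with beta catenin knocked out; cells exposed to compound for 60 hours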
# Large T antigen = Large T antigen (Simian virus 40, UniProt P03070); assay type: functional, Betapolyomavirus macacae;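 note: Confirmatory-stage PubChem screen for compounds that inhibit SV40 T antigen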
# [13] = molecular target: T6, Microphthalmia-associated transcription factor (Homo sapiens, UniProt O75030); assay: TRPM1 promoter luciferase signal decrease, dose response, MITF inhibitor project, cell-based, SK-MEL-5, cherry-picked, set 3 (AID 493073); assay type: functional
# T6 sequence (O75030 whole entry): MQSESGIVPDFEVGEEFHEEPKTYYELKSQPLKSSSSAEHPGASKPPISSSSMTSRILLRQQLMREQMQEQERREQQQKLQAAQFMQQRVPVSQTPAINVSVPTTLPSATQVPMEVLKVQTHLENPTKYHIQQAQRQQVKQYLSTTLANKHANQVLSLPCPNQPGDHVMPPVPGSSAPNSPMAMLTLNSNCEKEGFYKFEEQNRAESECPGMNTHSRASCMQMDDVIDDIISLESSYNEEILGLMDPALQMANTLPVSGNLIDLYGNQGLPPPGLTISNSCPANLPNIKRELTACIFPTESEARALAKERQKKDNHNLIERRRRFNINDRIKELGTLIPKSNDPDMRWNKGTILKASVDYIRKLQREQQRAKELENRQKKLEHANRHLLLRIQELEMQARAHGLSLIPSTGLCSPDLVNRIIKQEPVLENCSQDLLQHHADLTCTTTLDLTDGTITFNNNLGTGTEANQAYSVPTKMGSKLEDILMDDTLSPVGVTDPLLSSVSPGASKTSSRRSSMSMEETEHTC
smiles,measurement,setting,value
O=C(CSc1nnc(COc2ccccc2)n1Cc1ccco1)c1ccc(F)cc1,IC50,Coagulation factor XII,> 50 µM (inactive)
CCOC(=O)C1Nc2ccccc2C2C(O)C(O)CC12 (stereo unspecified),AC50,ORF 73,> 350 µM (inactive)
CC(C)c1ccc(NC(=O)c2ccc(Br)o2)cc1,IC50,Coagulation factor XII,> 50 µM (inactive)
Cc1cc(C)n(-c2nc(Nc3ccccc3C)nc(-n3nc(C)cc3C)n2)n1,EC50,[1],> 60 µM (inconclusive)
same,EC50,[2],7.86 µM (active)
same,AC50,Cytochrome P450 2C19,39.8 µM (inconclusive)
same,AC50,Cytochrome P450 2C9,15.8 µM (inconclusive)
same,EC50,Streptokinase A,> 150 µM (not active)
same,EC50,[3],1.07 µM (active)
same,EC50,Streptococcus,23.2 µM (active)
same,EC50,[4],8.77 µM (active)
O=C(N/N=C/c1coc2ccccc2c1=O)c1cc(O)cc(O)c1,IC50,[5],> 50 µM (inactive)
same,IC50,[6],7.54 µM (active)
O=C(O)CCn1cc(C=C2C(=O)NC(=S)NC2=O)c(-c2cc3ccccc3oc2=O)n1,IC50,[5],6.27 µM (active)
same,IC50,[7],3.42 µM (active)
same,IC50,[6],17.8 µM (active)
same,IC50,[8],13 µM (active)
Nc1ccc2nc(-c3ccc(-c4nc5ccc(N)cc5[nH]4)cc3)[nH]c2c1,IC50,[5],> 50 µM (inactive)
same,IC50,SUMO-activating enzyme,> 100 µM (inactive)
same,IC50,[6],5.62 µM (active)
Cc1cc2c(c(=O)n1C)C(Cc1ccccc1)C(C#N)=C(N)O2 (stereo unspecified),IC50,Coagulation factor XII,> 50 µM (inactive)
Clc1ccc(C2=Nn3c(nnc3-c3cc(-c4ccccc4)n[nH]3)SC2)cc1,EC50,[2],37.9 µM (inactive)
same,EC50,Melanocortin receptor 4,> 89.2 µM (inactive)
COc1cccc(OC)c1-c1nn2c(-c3ccco3)nnc2s1,IC50,H9c2,> 79 µM (inactive)
same,IC50,Coagulation factor XII,> 50 µM (inactive)
CC(C)C(OC(=O)c1cccs1)C(=O)NCc1ccc2c(c1)OCO2 (stereo unspecified),IC50,Coagulation factor XII,> 50 µM (inactive)
CCc1ccc2c(c1)C1(C(=O)N2)N2CCCC2C(C(=O)c2ccc3ccccc3c2)C12C(=O)Nc1ccccc12 (stereo unspecified),AC50,[9],3.05 µM (active)
same,CC50,[10],16.2 µM (active)
same,AC50,INS1,6.87 µM (active)
same,EC50,[2],9.78 µM (active)
same,EC50,[11],10.2 µM (active)
same,EC50,[12],10.1 µM (active)
O=C1NC(=O)C(=Cc2ccc(-c3cc(Cl)ccc3[N+](=O)[O-])o2)C(=O)N1,IC50,Large T antigen,48.3 µM (active)
same,IC50,[5],> 50 µM (inactive)
same,AC50,[13],17.2 µM (active)
same,IC50,[6],4.58 µM (active)
